Key:
MEF cells = assay: NAD+ induction in MEF cells; format: cell-based; conditions: MEF mouse fibroblast, 2 hours, NARH and NR 0.5 mM
Experimental: (§1) MEF cells were treated with dihydronicotinic acid riboside (NARH) and nicotinamide riboside (NR), alone or in combination for 2 hours. NARH and NR were used at the concentration of 0.5 mM. After treatment, cells were trypsinized and collected for NAD+ and protein content measurements. NAD+ was extracted and quantified using an EnzyChrom NAD/NADH Assay Kit (BioAssay Systems; #E2ND-100) according to the manufacturer's instructions. Proteins were quantified with BCA Protein Assay Kit (Pierce™; #23225). All results are expressed as mean+/−SD of n=2. NARH vs control P=0.7581; NR vs control P=0.5337; NRH+NR vs control P=0.0002.
MEF cells were treated with dihydronicotinic acid riboside (NARH) and nicotinamide riboside (NR), alone or in combination for 2 hours. NARH and NR were used at the concentration of 0.5 mM. After treatment, cells were trypsinized and collected for NAD+ and protein content measurements. NAD+ was extracted and quantified using an EnzyChrom NAD/NADH Assay Kit (BioAssay Systems; #E2ND-100) according to the manufacturer's instructions. Proteins were quantified with BCA Protein Assay Kit (Pierce™; #23225).

RAW 264.7 cells = assay: NAD+ induction in RAW 264.7 cells; format: cell-based; conditions: RAW 264.7 mouse macrophages, 2 hours, NARH and NR 0.5 mM
Experimental: as §1, with “RAW 264.7” for “MEF”, “scraped” for “trypsinized”, “n=2-4.” for “n=2.”, “P=0.8130;” for “P=0.7581;”, “P=0.0788;” for “P=0.5337;”, “P=0.0087.” for “P=0.0002.”
RAW 264.7 cells were treated with dihydronicotinic acid riboside (NARH) and nicotinamide riboside (NR), alone or in combination for 2 hours. NARH and NR were used at the concentration of 0.5 mM. After treatment, cells were scraped and collected for NAD+ and protein content measurements. NAD+ was extracted and quantified using an EnzyChrom NAD/NADH Assay Kit (BioAssay Systems; #E2ND-100) according to the manufacturer's instructions. Proteins were quantified with BCA Protein Assay Kit (Pierce™; #23225).

Row | Structure (SMILES) | NAD+ induction (MEF cells) | NAD+ induction (RAW 264.7 cells)
1 | O=C(O)C1=CN([C@@H]2O[C@H](CO)[C@@H](O)[C@@H]2O)C=CC1 [NARH, dihydronicotinic acid riboside] | not NARH or NR alone, induces NAD+ | not NARH or NR alone, induces NAD+
2 | NC(=O)c1ccc[n+]([C@@H]2O[C@H](CO)[C@@H](O)[C@H]2O)c1 [NR, nicotinamide riboside] | not NARH or NR alone, induces NAD+ | not NARH or NR alone, induces NAD+
